The source of these data is US8247538B2, “Preparation method of radioisotope labeling compound using carbon nanotube” (Korea Atomic Energy Research Institute, priority 2006, dated 2012).

This series in a line: In vivo dynamic kinetics, gamma camera imaging after intravenous injection. The conditions noted are these: rabbits, 100 μCi/0.1 ml into left ear vein. Further details: species or system New Zealand White male rabbits. How it is done: The ^99mTc-2,6-diisopropylacetanilidoiminodiacetic acid prepared in Example 1 was assayed for in vivo dynamic kinetics as follows.
After 6-week-old New Zealand White male rabbits (2887.6±101.5 g, n=3) were anesthetized with ketamine and xylazine, the radioactive compound of Example 1 was injected at a dose of 100 μCi/0.1 ml into the left ear vein of each of the rabbits. All of the rabbits were placed in a pronating posture. Moving pictures were taken for 30 min of each of the rabbits using a gamma camera fitted with a low energy, multipurpose collimator while 16 still pictures were also taken at predetermined time intervals. The image analyzer was set to 140 KeV with a 20% energy window. Image data were analyzed under the dynamic procedure of a Microdelta system (Simens, USA). The static images were taken at 1.52, 3.45, 5.37, 7.30, 9.22, 11.15, 13.07, 15.00, 16.52, 18.45, 20.37, 22.30, 24.22, 26.15, 28.07 and 30 min after the injection, and the results are given in FIG. 3.

In the case of “^99mTc-2,6-diisopropylacetanilidoiminodiacetic acid [Example 1]”, the “in vivo distribution seen in gamma camera images (FIG. 3)” value (images 1.52-30 min after injection) is listed as “detected prominently in the hepatobiliary system, with the highest concentration at the liver”. For the setting “imaging for 30 min”, the “contrast ratio between images taken of the liver and of other organs, compared with conventional contrast media for imaging the hepatobiliary system” value is “higher”.
